Where a SMILES comes first, the peptide text is derived from it. [ ]: non-standard residue; d: D form. Nva = CCC[C@H](N)C(=O)O
Legend:
[1] = test system: peptidases present in cytoplasmic extracts obtained from NF1, NF2, NF3, LNF1, LNF2, LNF3, and SC 5314 cells; experiment: Peptide cleavage rate in cell-free extract (Cd-ninhydrin); assay type: in vitro ADME, Candida albicans; settings: pH 6.5, 30°C
Procedure: Yeast cells from the overnight culture in YNB-SG were harvested by centrifugation and washed with cold 25 mM potassium phosphate buffer (pH 6.5). Cells were then suspended in a minimal amount of the buffer and disrupted with the French press. The resulting suspension was centrifuged (35,000 ×g, 4°C, 45 min), and the supernatant was used as a cell-free extract for the determination of peptide cleavage rates.
The incubation mixtures, consisting of 10 mL of a 200 mM peptide solution in 50 mM potassium phosphate buffer (pH 6.5) and 2 mL of an appropriately diluted crude extract (final protein concentration, 0.1–0.5 mg mL^-1), were incubated at 30°C. At 5 min intervals, 2 mL aliquots were withdrawn and heated at 100°C for 3 min. The resulting suspensions were centrifuged to remove the protein precipitates and the concentration of free amino acids in the supernatant was determined by the Cd-ninhydrin procedure ([Doi et al., 1981]).

[2] = test system: C. albicans opt1–opt5Δ ptr2Δ ptr22Δ; experiment: Initial peptide uptake rate; assay type: cell-based, Candida albicans; settings: 50 mM potassium phosphate buffer (pH 5.0 or 6.5) + 1% glucose, 30°C, 100 μM peptide, TNBS A420, slope 0- to 10-min
Procedure: (§1) Yeast cells grown exponentially in the YNB-SG medium were harvested by centrifugation (3000 ×g, 5 min), washed with 50 mM potassium phosphate buffer (pH 5.0 or 6.5), and suspended in the same buffer containing 1% glucose, to a final cell density corresponding to A660 ≅ 1.0. The cell suspension was incubated at 30°C. After 10 min, an oligopeptide solution was added, to give a final concentration of 100 μM. At that moment and at 5 min intervals thereafter, 2 mL samples of the cell suspension were withdrawn, immediately filtered through the Whatman GF/A filters and the filtrates were used to determine the residual peptide concentration. Then, the 1 mL portions of the filtrates were taken and combined with 1.25 mL aliquots of a solution containing 4% Na2B4O7 × 10 H2O and 0.8 mg mL^-1 of 2,4,6-trinitrobenzenesulfonate. The reaction was carried out at 37°C for 30 min. The A420 values were measured and the peptide concentration was read from the appropriate standard curve. Data were plotted as nanomoles of an oligopeptide, taken up by 1 mg (dry weight) of cells versus time. The initial uptake velocities were determined from the slopes of the linear part of the curves, in the 0- to 10-min region.

[3] = test system: C. albicans opt1Δ; experiment: Initial peptide uptake rate; assay type: cell-based, Candida albicans; settings: 50 mM potassium phosphate buffer (pH 5.0 or 6.5) + 1% glucose, 30°C, 100 μM peptide, TNBS A420, slope 0- to 10-min
Procedure: as §1

[4] = test system: C. albicans opt4Δ; experiment: Initial peptide uptake rate; assay type: cell-based, Candida albicans; settings: 50 mM potassium phosphate buffer (pH 5.0 or 6.5) + 1% glucose, 30°C, 100 μM peptide, TNBS A420, slope 0- to 10-min
Procedure: as §1

[5] = test system: C. albicans SC5314; experiment: Initial peptide uptake rate; assay type: cell-based, Candida albicans; settings: SC 5314; cells grown in YNB-SG; 50 mM potassium phosphate buffer (pH 5.0 or 6.5) + 1% glucose, 30°C, 100 μM peptide, residual peptide by TNBS A420, slope 0- to 10-min
Procedure: as §1

[6] = test system: C. albicans ptr2Δ ptr22Δ; experiment: Initial peptide uptake rate; assay type: cell-based, Candida albicans; settings: 50 mM potassium phosphate buffer (pH 5.0 or 6.5) + 1% glucose, 30°C, 100 μM peptide, TNBS A420, slope 0- to 10-min
Procedure: as §1

[7] = test system: C. albicans opt5Δ; experiment: Initial peptide uptake rate; assay type: cell-based, Candida albicans; settings: 50 mM potassium phosphate buffer (pH 5.0 or 6.5) + 1% glucose, 30°C, 100 μM peptide, TNBS A420, slope 0- to 10-min
Procedure: as §1

[8] = test system: C. albicans opt2Δ opt3Δ; experiment: Initial peptide uptake rate; assay type: cell-based, Candida albicans; settings: 50 mM potassium phosphate buffer (pH 5.0 or 6.5) + 1% glucose, 30°C, 100 μM peptide, TNBS A420, slope 0- to 10-min
Procedure: as §1

[9] = test system: C. albicans opt1–opt5Δ; experiment: Initial peptide uptake rate; assay type: cell-based, Candida albicans; settings: 50 mM potassium phosphate buffer (pH 5.0 or 6.5) + 1% glucose, 30°C, 100 μM peptide, TNBS A420, slope 0- to 10-min
Procedure: as §1

[10] = test system: C. albicans isolates NF1-3 and LNF1-3; experiment: Initial peptide uptake rate by isolates resistant to F2/F3; assay type: cell-based, Candida albicans; settings: all six isolates NF1-3, LNF1-3; Figure 4
Procedure: as §1
It is therefore clear that the diminished sensitivity of all six isolates to F2 and F3 was due to the reduced uptake, most likely by permease(s) of the PTR system.

Compound	Velocity of proteolytic cleavage relative to F6, F7, and F11 [1]	Uptake rate ± SD [2]	Uptake rate ± SD [3]	Uptake rate ± SD [4]	Uptake rate ± SD [5]	Uptake rate ± SD [6]	Uptake rate ± SD [7]	Uptake rate ± SD [8]	Uptake rate ± SD [9]	Initial uptake rate relative to wild type SC5314 cells [10]
CCC[C@H](N)C(=O)N[C@@H](Cc1ccccc1)C(=O)N[C@@H](CCSC)C(=O)N[C@@H](CC(=O)O)C(=O)N1CCC[C@H]1C(=O)O [Peptide F2, Nva-FMDP] (H-[Nva]FMDP-OH)	two to three times higher	<0.1 nmol min^-1 (mg dry weight)^-1	4.75 ± 0.09 nmol min^-1 (mg dry weight)^-1	4.86 ± 0.14 nmol min^-1 (mg dry weight)^-1	4.83 ± 0.11 nmol min^-1 (mg dry weight)^-1	<0.1 nmol min^-1 (mg dry weight)^-1	4.78 ± 0.11 nmol min^-1 (mg dry weight)^-1	4.80 ± 0.15 nmol min^-1 (mg dry weight)^-1	4.05 ± 0.18 nmol min^-1 (mg dry weight)^-1	remarkably lower
CCC[C@H](NC(=O)[C@@H](N)CCCCN)C(=O)N[C@@H](Cc1ccccc1)C(=O)N[C@@H](CCSC)C(=O)N[C@@H](CC(=O)O)C(=O)N1CCC[C@H]1C(=O)O [Peptide F3, Lys-Nva-FMDP] (H-K[Nva]FMDP-OH)	two to three times higher	<0.1 nmol min^-1 (mg dry weight)^-1	4.08 ± 0.14 nmol min^-1 (mg dry weight)^-1	4.12 ± 0.15 nmol min^-1 (mg dry weight)^-1	4.32 ± 0.14 nmol min^-1 (mg dry weight)^-1	0.11 ± 0.04 nmol min^-1 (mg dry weight)^-1	4.19 ± 0.16 nmol min^-1 (mg dry weight)^-1	3.23 ± 0.19 nmol min^-1 (mg dry weight)^-1	2.98 ± 0.18 nmol min^-1 (mg dry weight)^-1	lower
Ala-Ala-Ala-Ala [(Ala)4, model alanyl oligopeptide, reference compound]		<0.1 nmol min^-1 (mg dry weight)^-1	0.79 ± 0.09 nmol min^-1 (mg dry weight)^-1	1.72 ± 0.11 nmol min^-1 (mg dry weight)^-1	3.75 ± 0.19 nmol min^-1 (mg dry weight)^-1	2.72 ± 0.16 nmol min^-1 (mg dry weight)^-1	1.55 ± 0.11 nmol min^-1 (mg dry weight)^-1	1.93 ± 0.15 nmol min^-1 (mg dry weight)^-1	0.12 ± 0.02 nmol min^-1 (mg dry weight)^-1	nearly the same or even somewhat higher

— publication PMC5673977, “Transport Deficiency Is the Molecular Basis of Candida albicans Resistance to Antifungal Oligopeptides” (Frontiers in Microbiology, 2017)
